In patent publication US6512112B2, “Aminoaryl oxazolidinone N-oxides” (Pharmacia & Upjohn Company, priority 1995, dated 2003):
Converted amounts (≈) assume the structure as drawn. Like-named read-outs stand apart in the source and are kept apart here.

What was measured:
[1] = Reduction of the N-oxide in vivo following intravenous and oral administration to rats; parameters: species or system male Sprague-Dawley rats; conditions: rat
Experimental: The rate and extent of reduction of the N-oxide of Example 2 was investigated in vivo using the following procedures: Six male Sprague-Dawley rats are used for this study. Three rats are given a single intravenous 10 mg/kg dose of the N-oxide and three rats are given a single oral 25 mg/kg dose of the N-oxide. Blood is collected pre-dose and up to 24 h post dose. The plasma is analyzed for the N-oxide and the parent amine by LC-MS.

[2] = Solubility in pH 7, 50 mM phosphate buffer; format: physicochemical; conditions: thermodynamic from solid
Experimental: The samples are capped and stirred via magnetic stir bars for 24 to 48 hours at room temperature. Samples are filter centrifuged (800×g) for 5-10 minutes through Millipore Ultrafree-MC 0.22 Micron filter units. The supernate is analyzed by either UV or HPLC to quantitate the drug concentration.

S. Pneumoniae UC ® 9912 = assay: Minimum inhibitory concentration (MIC) by agar dilution; format: cell-based; conditions: Streptococcus pneumoniae, UC9912
Experimental: (§1) The oxazolidinone compounds of the present invention have useful activity against a variety of microorganisms. The in vitro activity of compounds of the present invention are assessed by standard testing procedures such as the determination of minimum inhibitory concentration (MIC) by agar dilution as described in “Methods for Dilution Antimicrobial Susceptiblity Tests for Bacteria That Grow Aerobically” (MFT) published January 1993 by the National Committee for Clinical Laboratory Standards (NCCLS), 771 East Lancaster Avenue, Villanova, Pa. 19084, USA. The activity of selected compounds of the present invention against Staphylococcus aureus and Streptococcus pneumoniae are shown in Table 2.

S. Aureus UC ® 9213 = assay: as above; format: cell-based; conditions: Staphylococcus aureus, UC9213
Experimental: as §1

[3] = aqueous buffer, parent amine of the example's N-oxide, pH 7, 50 mM phosphate buffer or other vehicle, room temperature, 24 to 48 hours, read-out: Parent Amine Solubility
[4] = aqueous buffer, pH 7, 50 mM phosphate buffer or other vehicle, room temperature, 24 to 48 hours, read-out: N-Oxide Solubility

Structure (SMILES) | solubility [2, 3] [µg/mL] | melting point [°C] | MIC (S. Pneumoniae UC ® 9912) [µg/mL] | MIC (S. Aureus UC ® 9213) [µg/mL] | solubility [2, 4] [µg/mL] | other results
CC(=O)NC[C@H]1CN(c2ccc(N3CCOCC3)c(F)c2)C(=O)O1 [parent amine of Example 2, (S )-N-[[3-[3 -Fluoro-4-(4-morpholinyl)phenyl]-2-oxo-5-oxazolidinyl]methyl]-acetamide, reference compound] | – | – | – | – | – | time parent amine detected in plasma post dosing ([1]; after dosing of the N-oxide, lower limit of quantitation ≈0.01 μg/mL): up to 10 h
CC(=O)NC[C@H]1CN(c2ccc(N3CCN(S(=O)(=O)c4ccccc4C#N)CC3)c(F)c2)C(=O)O1 [parent amine of Example 6, (S)-N-[[3-[4-[4-[(2-cyanophenyl)sulfonyl]-1-piperazinyl]-3-fluorophenyl]-2-oxo-5-oxazolidinyl]methyl]acetamide, reference compound] | 31 (≈ 0.0618 mM) | – | – | – | – | –
CC(=O)NC[C@H]1CN(c2ccc([N+]3([O-])CCN(C(=O)CO)CC3)c(F)c2)C(=O)O1 (hydrate or solvate) [Example 1, (S)-N-[[3-[3-fluoro4-[4-(hydroxyacetyl)-1-piperazinyl]phenyl]-2-oxo-5-oxazolidinyl]-methyl]acetamide N-oxide] | – | 158 to 160 | – | – | – | –
CC(=O)[NH+]([O-])C[C@@H]1CN(c2ccc(N3CCN(S(=O)(=O)CC#N)CC3)c(F)c2)C(=O)O1 (stereo partly drawn) [Example 5, (S)-N-[[3-[4-[4-[(cyanomethyl)sulfonyl]-1-piperazinyl]3-fluorophenyl]-2-oxo-5-oxazolidinyl]methyl]acetamide N-oxide] | – | 153 to 156 | 0.5 (≈ 0.0011 mM) | 4 (≈ 0.00878 mM) | – | –
CC(=O)NC[C@H]1CN(c2ccc([N+]3([O-])CCOCC3)c(F)c2)C(=O)O1 [Example 2] | – | 202 to 204 | 1 (≈ 0.00283 mM) | 4 (≈ 0.0113 mM) | 534000 (≈ 1510 mM) | N-oxide found in plasma ([1]; 10 mg/kg intravenous N-oxide, first time point immediately post injection, LC-MS): Only traces; Cmax, Tmax and AUC values for the parent amine compared with direct administration of the parent amine ([1]; N-oxide 10 mg/kg intravenous and 25 mg/kg oral, same doses and protocol): very similar; conversion of the N-oxide to the parent amine in vivo ([1]; intravenous and oral dosing): rapid and essentially quantitative; solubility ([2]; water, value stated, read-out: water solubility): 409000 µg/mL (≈ 1160 mM)
CC(=O)NC[C@H]1CN(c2ccc([N+]3([O-])CCN(C(=O)CO)CC3)c(F)c2)C(=O)O1 [Example 1, (S)-N-[[3-[3-fluoro4-[4-(hydroxyacetyl)-1-piperazinyl]phenyl]-2-oxo-5-oxazolidinyl]-methyl]acetamide N-oxide] | – | – | 0.5 (≈ 0.00122 mM) | 2 (≈ 0.00487 mM) | 348000 (≈ 848 mM) | –
CC(=O)NC[C@H]1CN(c2ccc(N3CCN(C(=O)CO)CC3)c(F)c2)C(=O)O1 [parent amine of Example 1, (S)-N-[[3-[3-Fluoro-4-[4-(hydroxyacetyl)-1-piperazinyl]-phenyl]-2-oxo-5-oxazolidinyl]methyl]-acetamide, reference compound] | 4200 (≈ 10.6 mM) | – | – | – | – | –
CC(=O)NC[C@H]1CN(c2ccc([N+]3([O-])CCN(S(=O)(=O)c4ccccc4C#N)CC3)c(F)c2)C(=O)O1 [Example 6, (S)-N-[[3-[4-[4-[(2-cyanophenyl)sulfonyl]-1-piperazinyl]-3-fluorophenyl]-2-oxo-5-oxazolidinyl]methyl]acetamide N-oxide] | – | 190 to 192 | 0.25 (≈ 0.000483 mM) | 2 (≈ 0.00386 mM) | 1100 (≈ 2.13 mM) | –
CC(=O)NC[C@H]1CN(c2ccc(N3CCN(S(C)(=O)=O)CC3)c(F)c2)C(=O)O1 [parent amine of Example 3, (S)-N-[[3-[3-fluoro-4-[4-(methylsulfonyl)-1-piperazinyl]phenyl]-2-oxo-5-oxazolidinyl]-methyl]acetamide, reference compound] | 280 (≈ 0.676 mM) | – | – | – | – | –
CC(=O)NC[C@H]1CN(c2cc(F)c([N+]3([O-])CCN(C(=O)CO)CC3)c(F)c2)C(=O)O1 [Example 4, (S)-N-[[3-[3,5-difluoro-4-[4-(hydroxyacetyl)-1-piperazinyl]phenyl]-2-oxo-5-oxazolidinyl]-methyl]acetamide N-oxide] | – | 100 to 105 | 0.5 (≈ 0.00117 mM) | 2 (≈ 0.00467 mM) | – | –
